Structures can show the parent of a compound that is named as a salt. A value given as a limit tells only on which side of the number the result lay.

This test addresses farnesyl transferase (Homo sapiens, UniProt P49354+P49356). Nature of the test: Farnesyl transferase inhibition, [3H]-farnesylation of biotinylated K-ras C-terminal peptide (SPA assay). The class given is biochemical. To be noted: K-Ras substrate; 60 min at 37° C.; mean of two IC50 values; read-out: In vitro inhibitory activity (K-Ras) IC50.
Take `COc1cccc([C@]23CC[C@H](c4ccccc42)[C@@]2(C(=O)O)CN(C(=O)Cc4ccccc4OC)C[C@@H]32)c1` (relative stereo) [Example 10, (3aRS,4SR,9SR,9aRS)-4,9-ethano-9-(3-methoxyphenyl)-2-[(2-methoxyphenyl)acetyl]-2,3,3a,4,9,9a-hexahydro-1H-benzo[f]isoindole-3a-carboxylic Acid]: the IC50 turned out to be 160 nM.
Under `C=C(C(=O)N1C[C@H]2[C@@]3(c4ccc(C)cc4)CC[C@H](c4ccccc43)[C@@]2(C(=O)NCc2ccccc2)C1)c1ccccc1OC` (relative stereo) [Example 13, (3aRS,4SR, 9SR,9aRS)-3a-N-benzylcarbamoyl-4,9-ethano-2-[2-(2-methoxyphenyl)propenoyl]-9-(4-methylphenyl)-2,3,3a,4,9,9a-hexahydro-1H-benzo[f]isoindole] stands 140 nM.
As to `C=C(C(=O)N1C[C@H]2[C@@]3(c4ccc(C)cc4)CC[C@H](c4ccccc43)[C@@]2(C(=O)NCc2cccnc2)C1)c1ccccc1OC` (relative stereo) [Example 17, (3aRS,4SR,9SR,9aRS)-4,9-ethano-2-[2-(2-methoxyphenyl)propenoyl]-9-(4-methylphenyl)-2,3,3a,4,9,9a-hexahydro-1H-benzo[f]isoindole-3a-N-(3-pyridylmethyl)carboxamide], the IC50 stood at 235 nM.
Under `C=C(C(=O)N1C[C@H]2[C@@]3(c4ccc(C)cc4)CC[C@H](c4ccccc43)[C@@]2(C(=O)NCc2ccncc2)C1)c1ccccc1OC` (relative stereo) [Example 20, (3aRS,4SR,9SR,9aRS)-4,9-ethano-2-[2-(2-methoxyphenyl)propenoyl]-9-(4-methylphenyl)-2,3,3a,4,9,9a-hexahydro-1H-benzo[f]isoindole-3a-N-(4-pyridylmethyl)carboxamide] stands 140 nM; under `C=C(C(=O)N1C[C@H]2[C@@]3(c4ccc(C)cc4)CC[C@H](c4ccccc43)[C@@]2(C(=O)NN(C)C)C1)c1ccccc1OC` (relative stereo) [Example 22, (3aRS,4SR,9SR,9aRS)-4,9-ethano-2-[2-(2-methoxyphenyl)propenoyl]-9-(4-methylphenyl)-2,3,3a,4,9,9a-hexahydro-1H-benzo[f]isoindole-3a-N',N'-dimethylcarbohydrazide], 131 nM.
On to `C=C(C(=O)N1C[C@H]2[C@@]3(c4ccc(C)cc4)CC[C@H](c4ccccc43)[C@@]2(C(=O)NNc2ccccc2)C1)c1ccccc1OC` (relative stereo) [Example 23, (3aRS,4SR,9SR,9aRS)-4,9-ethano-2-[2-(2-methoxyphenyl)propenoyl]-9-(4-methylphenyl)-2,3,3a,4,9,9a-hexahydro-1H-benzo[f]isoindole-3a-N'-phenylcarbohydrazide], for which the 50% inhibitory concentration (IC50) was found to be 277 nM.
As to `C=C(C(=O)N1C[C@H]2[C@@]3(c4ccc(C)cc4)CC[C@H](c4ccccc43)[C@@]2(C(=O)NN2CCCCC2)C1)c1ccccc1OC` (relative stereo) [Example 24, (3aRS,4SR,9SR,9aRS)-4,9-ethano-2-[2-(2-methoxyphenyl)propenoyl]-9-(4-methylphenyl)-2,3,3a,4,9,9a-hexahydro-1H-benzo[f]isoindole-3a-N',N'-pentamethylenecarbohydrazide], the IC50 turned out to be 84 nM.
In the case of `C=C(C(=O)N1C[C@H]2[C@@]3(c4ccc(C)cc4)CC[C@H](c4ccccc43)[C@@]2(C(=O)NCc2ccc[n+]([O-])c2)C1)c1ccccc1OC` (relative stereo) [Example 26, (3aRS,4SR,9SR,9aRS)-4,9-ethano-2-[2-(2-methoxyphenyl)-propenoyl]-9-(4-methylphenyl)-2,3,3a,4,9,9a-hexahydro-1H-benzo[f]isoindole-3a-N-(N-oxo-3-pyridyl)methylcarboxamide], the IC50 is 145 nM.
In the case of `C=C(C(=O)N1C[C@H]2[C@@]3(c4ccc(C)cc4)CC[C@H](c4ccccc43)[C@@]2(C(=O)NNc2ccc(OC)cc2)C1)c1ccccc1OC` (relative stereo) [Example 27, (3aRS,4SR,9SR,9aRS)-4,9-ethano-2-[2-(2-methoxyphenyl)propenoyl]-9-(4-methylphenyl)-2,3,3a,4,9,9a-hexahydro-1H-benzo[f]isoindole-3a-N'-(4-methoxyphenyl)carbohydrazide], the concentration for half-maximal inhibition (IC50) turned out to be 9 nM.
The value for `C=C(C(=O)N1C[C@H]2[C@@]3(c4ccc(C)cc4)CC[C@H](c4ccccc43)[C@@]2(C(=O)NN(C)c2ccccc2)C1)c1ccccc1OC` (relative stereo) [Example 28, (3aRS,4SR,9SR,9aRS)-4,9-ethano-2-[2-(2-methoxyphenyl)propenoyl]-9-(4-methylphenyl)-2,3,3a,4,9,9a-hexahydro-1H-benzo[f]isoindole-3a-N'-methyl-N'-phenylcarbohydrazide] was 54 nM; that for `C=C(C(=O)N1C[C@H]2[C@@]3(c4ccc(C)cc4)CC[C@H](c4ccccc43)[C@@]2(C(=O)NNc2ccccc2C)C1)c1ccccc1OC` (relative stereo) [Example 29, (3aRS,4SR,9SR,9aRS)-4,9-ethano-2-[2-(2-methoxyphenyl)propenoyl]-9-(4-methylphenyl)-2,3,3a,4,9,9a-hexahydro-1H-benzo[f]isoindole-3a-N'-(2-methylphenyl)carbohydrazide] was 140 nM.
Consider `C=C(C(=O)N1C[C@H]2[C@@]3(c4ccc5c(c4)OCCO5)CC[C@H](c4ccccc43)[C@@]2(C(=O)NCc2cccnc2)C1)c1ccccc1OC` (relative stereo) [Example 33, (3aRS,4SR,9SR,9aRS)-9-(2,3-dihydro-1,4-benzodioxin-6-yl)-4,9-ethano-2-[2-(2-methoxyphenyl)propenoyl]-2,3,3a,4,9,9a-hexahydro-1H-benzo[f]isoindole-3a-N-(3-pyridylmethyl)carboxamide], for which the IC50 is 242 nM.
`C=C(C(=O)N1C[C@@H]2[C@]3(c4ccc5c(c4)OCCO5)CC[C@@H](c4ccccc43)[C@]2(C(=O)NCc2cccs2)C1)c1ccccc1OC` (relative stereo) [Example 36, (3aRS,4SR,9SR,9aRS)-9-(2,3-dihydro-1,4-benzodioxin-6-yl)-4,9-ethano-2-[2-(2-methoxyphenyl)propenoyl]-2,3,3a,4,9,9a-hexahydro-1H-benzo[f]isoindole-3a-N-(2-thienylmethyl)carboxamide]: the IC50 was 120 nM.
Turning to `C=C(C(=O)N1C[C@@H]2[C@]3(c4ccc(C(F)(F)F)cc4)CC[C@@H](c4ccccc43)[C@]2(C(=O)NCc2cccnc2)C1)c1ccccc1OC` (relative stereo) [Example 42, (3aRS,4SR,9SR,9aRS)-4,9-ethano-2-[2-(2-methoxyphenyl)propenoyl]-9-[4-(trifluoromethyl)phenyl]-2,3,3a,4,9,9a-hexahydro-1H-benzo[f]isoindole-3a-N-(3-pyridylmethyl)carboxamide], the IC50 stood at 83 nM.
`C=C(C(=O)N1C[C@@H]2[C@]3(c4ccc(C(F)(F)F)cc4)CC[C@@H](c4ccccc43)[C@]2(C(=O)NNC(=O)c2ccccc2)C1)c1ccccc1OC` (relative stereo) [Example 43, (3aRS,4SR,9SR,9aRS)-4,9-ethano-2-[2-(2-methoxyphenyl)propenoyl]-9-[4-(trifluoromethyl)phenyl]-2,3,3a,4,9,9a-hexahydro-1H-benzo[f]isoindole-3a-N'-benzoylcarbohydrazide]: the IC50 amounted to 590 nM.
Take `C=C(C(=O)N1C[C@@H]2[C@]3(c4ccc(C(F)(F)F)cc4)CC[C@@H](c4ccccc43)[C@]2(C(=O)NNc2ccccc2)C1)c1ccccc1OC` (relative stereo) [Example 44, (3aRS,4SR,9SR,9aRS)-4,9-ethano-2-[2-(2-methoxyphenyl)propenoyl]-9-[4-(trifluoromethyl)phenyl]-2,3,3a,4,9,9a-hexahydro-1H-benzo[f]isoindole-3a-N'-phenylcarbohydrazide]: the IC50 was found to be 369 nM.
The value for `C=C(C(=O)N1C[C@@H]2[C@]3(c4ccc5ccccc5c4)CC[C@@H](c4ccccc43)[C@]2(C(=O)O)C1)c1ccccc1OC` (relative stereo) [Example 46, sodium salt of (3aRS,4SR,9SR,9aRS)-4,9-ethano-2-[2-(2-methoxyphenyl)propenoyl]-9-(2-naphthyl)-2,3,3a,4,9,9a-hexahydro-1H-benzo[f]isoindole-3a-carboxylic Acid] was 132 nM; that for `C=C(C(=O)N1C[C@@H]2[C@]3(c4ccc5c(c4)CCO5)CC[C@@H](c4ccccc43)[C@]2(C(=O)NCc2cccnc2)C1)c1ccccc1OC` (relative stereo) [Example 63, (3aRS,4SR,9SR,9aRS)-9-(2,3-dihydrobenzofuran-5-yl)-4,9-ethano-2-[2-(2-methoxyphenyl)propenoyl]-2,3,3a,4,9,9a-hexahydro-1H-benzo[f]isoindole-3a-N-(3-pyridylmethyl)carboxamide] was less than 20 nM.
For the molecule `C=C(C(=O)N1C[C@H]2[C@@]3(c4ccc(OC)cc4)CC[C@H](c4ccccc43)[C@@]2(C(=O)NCc2cccnc2)C1)c1ccccc1OC` (relative stereo) [Example 76, (3aRS,4SR,9SR,9aRS)-4,9-ethano-9-(4-methoxyphenyl)-2-[2-(2-methoxyphenyl)propenoyl]-2,3,3a,4,9,9a-hexahydro-1H-benzo[f]isoindole-3a-N-(3-pyridylmethyl)carboxamide], the IC50 amounted to 244 nM.
As to `C=C(C(=O)N1C[C@H]2[C@@]3(c4ccc(OC)cc4)CC[C@H](c4ccccc43)[C@@]2(C(=O)NNc2ccccc2)C1)c1ccccc1OC` (relative stereo) [Example 77, (3aRS,4SR,9SR,9aRS)-4,9-ethano-9-(4-methoxyphenyl)-2-[2-(2-methoxyphenyl)propenoyl]-2,3,3a,4,9,9a-hexahydro-1H-benzo[f]isoindole-3a-N'-phenylcarbohydrazide], the IC50 stood at 204 nM.
Consider `C=C(C(=O)N1C[C@H]2[C@@]3(c4ccc(OC)cc4)CC[C@H](c4ccccc43)[C@@]2(C(=O)NNc2cccnc2)C1)c1ccccc1OC` (relative stereo) [Example 79, (3aRS,4SR,9SR,9aRS)-4,9-ethano-9-(4-methoxyphenyl)-2-[2-(2-methoxyphenyl)propenoyl]-2,3,3a,4,9,9a-hexahydro-1H-benzo[f]isoindole-3a-N'-(3-pyridyl)carbohydrazide], for which the IC50 was 45 nM.

A word on the IC50: it is the midpoint of a concentration-inhibition curve.

For the origin of these results see patent publication US6218406A, “Farnesyl transferase inhibitors, their preparation, the pharmaceutical compositions which contain them and their use in the preparation of medicaments” (Aventis Pharma S.A., priority 1996, dated 2001).
